Assay results from ChEMBL document CHEMBL5705899 (Biochem J, 2014).
Calls of active or inactive are those of the source. No cut-off for these calls is given here.

What was measured:
[1] = target: Mitogen-activated protein kinase 15 (Homo sapiens) (UniProt Q8TD08); experiment: Inhibition of recombinant human N-terminal His6-tagged ERK8 (2 to 544 residues) expressed in baculovirus infected Sf21 cells assessed as remaining activity at 1 uM using MBP as substrate incubated for 30 mins in presence of [gamma-33P]ATP by filter binding method relative to control
[2] = target: Mitogen-activated protein kinase kinase kinase 1 (Homo sapiens) (UniProt Q13233); experiment: Inhibition of human MAP3K1 at 1 uM using bio-4xCHKT as substrate in presence of 33P-ATP by ProQinase assay
[3] = target: Protein kinase C alpha type (Homo sapiens) (UniProt P17252); experiment: Inhibition of human PKCalpha at 1 uM using 3xChocktide-PKC as substrate in presence of 33P-ATP by ProQinase assay
[4] = target: Insulin receptor-related protein (Homo sapiens) (UniProt P14616); experiment: Inhibition of recombinant human N-terminal His6-tagged IRR (944 to 1236 residues) expressed in baculovirus infected Sf21 cells assessed as remaining activity at 1 uM using MBP as substrate incubated for 30 mins in presence of [gamma-33P]ATP by filter binding method relative to control
[5] = target: Proto-oncogene tyrosine-protein kinase Src (Homo sapiens) (UniProt P12931); experiment: Inhibition of human GST/His-tagged SRC at 1 uM using PolyEY as substrate in presence of 33P-ATP by ProQinase assay
[6] = target: Cytoplasmic tyrosine-protein kinase BMX (Homo sapiens) (UniProt P51813); experiment: Inhibition of human BMX at 1 uM using polyEy as substrate in presence of 33P-ATP by ProQinase assay
[7] = target: Dual serine/threonine and tyrosine protein kinase (Homo sapiens) (UniProt Q6XUX3); experiment: Inhibition of human RIPK5 at 1 uM using RBER-CHKtide as substrate in presence of 33P-ATP by ProQinase assay
[8] = target: Serine/threonine-protein kinase 33 (Homo sapiens) (UniProt Q9BYT3); experiment: (§1) Inhibition of recombinant human N-terminal GST-tagged STK33 (1 to 514 residues) expressed in baculovirus infected Sf21 cells assessed as remaining activity at 1 uM using AALVRQMSVAFFFKKKKK as substrate incubated for 30 mins in presence of [gamma-33P]ATP by filter binding method relative to control
[9] = target: Calcium/calmodulin-dependent protein kinase type II subunit alpha (Homo sapiens) (UniProt Q9UQM7); experiment: Inhibition of human CAMK2A at 1 uM using RBER-CHKtide as substrate in presence of 33P-ATP by ProQinase assay
[10] = target: ALK tyrosine kinase receptor (Homo sapiens) (UniProt Q9UM73); experiment: Inhibition of human GST/His-tagged ALK at 1 uM using polyEY as substrate in presence of 33P-ATP by ProQinase assay
[11] = target: Serine/threonine-protein kinase BRSK1 (Homo sapiens) (UniProt Q8TDC3); experiment: Inhibition of recombinant human N-terminal His6-tagged BRSK1 (2 to 778 residues) expressed in baculovirus infected Sf21 cells assessed as remaining activity at 1 uM using KKLNRTLSFAEPG as substrate incubated for 30 mins in presence of [gamma-33P]ATP by filter binding method relative to control
[12] = target: Mitogen-activated protein kinase kinase kinase kinase 5 (Homo sapiens) (UniProt Q9Y4K4); experiment: Inhibition of human MAP4K5 at 1 uM using casein as substrate in presence of 33P-ATP by ProQinase assay
[13] = target: Serine/threonine-protein kinase Nek6 (Homo sapiens) (UniProt Q9HC98); experiment: Inhibition of human NEK6 at 1 uM using RBER-GSK3 as substrate in presence of 33P-ATP by ProQinase assay
[14] = target: Fibroblast growth factor receptor 3 (Homo sapiens) (UniProt P22607); experiment: Inhibition of human FGFR3 at 1 uM using polyEY as substrate in presence of 33P-ATP by ProQinase assay
[15] = target: Tyrosine-protein kinase Yes (Homo sapiens) (UniProt P07947); experiment: Inhibition of recombinant human N-terminal His6-tagged YES1 (1 to 543 residues) expressed in baculovirus infected Sf21 cells assessed as remaining activity at 1 uM using Poly(Glu,Tyr) as substrate incubated for 30 mins in presence of [gamma-33P]ATP by filter binding method relative to control
[16] = target: Serine/threonine-protein kinase 17A (Homo sapiens) (UniProt Q9UEE5); experiment: Inhibition of human STK17A at 1 uM using RB-CTF as substrate in presence of 33P-ATP by ProQinase assay
[17] = target: Dual specificity mitogen-activated protein kinase kinase 2 (Homo sapiens) (UniProt P36507); experiment: Inhibition of human MEK2 at 1 uM using RBER-IRStide as substrate in presence of 33P-ATP by ProQinase assay
[18] = tested on: RAF proto-oncogene serine/threonine-protein kinase (Homo sapiens), P04049 [Y340D,Y341D]; experiment: Inhibition of human RAF1 Y340D/Y341D double mutant at 1 uM using MEK1-K97M as substrate in presence of 33P-ATP by ProQinase assay
[19] = target: Tau-tubulin kinase 2 (Homo sapiens) (UniProt Q6IQ55); experiment: Inhibition of recombinant human TTBK2 (1 to 450 residues) expressed in baculovirus infected Sf21 cells assessed as remaining activity at 1 uM using RRKDLHDDEEDEAMSITA as substrate incubated for 30 mins in presence of [gamma-33P]ATP by filter binding method relative to control
[20] = target: Dual specificity tyrosine-phosphorylation-regulated kinase 1A (Homo sapiens) (UniProt Q13627); experiment: Inhibition of recombinant human N-terminal GST-tagged DYRK1A (1 to 502 residues) expressed in Escherichia coli assessed as remaining activity at 1 uM using KKISGRLSPIMTEQ as substrate incubated for 30 mins in presence of [gamma-33P]ATP by filter binding method relative to control
[21] = target: Mitogen-activated protein kinase 7 (Homo sapiens) (UniProt Q13164); experiment: Inhibition of recombinant human N-terminal His6-tagged ERK5 (1 to 816 residues) expressed in baculovirus infected Sf21 cells assessed as remaining activity at 1 uM using MBP as substrate incubated for 30 mins in presence of [gamma-33P]ATP by filter binding method relative to control
[22] = target: Tyrosine-protein kinase ABL1 (Homo sapiens) (UniProt P00519); experiment: Inhibition of human ABL1 at 1 uM using poly(Ala,Glu,Lys,Tyr) as substrate in presence of 33P-ATP by ProQinase assay
[23] = target: Serine/threonine-protein kinase TBK1 (Homo sapiens) (UniProt Q9UHD2); experiment: as §1, with “TBK1” for “STK33”, “729” for “514”, “KKKKERLLDDRHDSGLDSMKDEE” for “AALVRQMSVAFFFKKKKK”
Sequence of Serine/threonine-protein kinase TBK1 (Homo sapiens) (Q9UHD2 whole entry): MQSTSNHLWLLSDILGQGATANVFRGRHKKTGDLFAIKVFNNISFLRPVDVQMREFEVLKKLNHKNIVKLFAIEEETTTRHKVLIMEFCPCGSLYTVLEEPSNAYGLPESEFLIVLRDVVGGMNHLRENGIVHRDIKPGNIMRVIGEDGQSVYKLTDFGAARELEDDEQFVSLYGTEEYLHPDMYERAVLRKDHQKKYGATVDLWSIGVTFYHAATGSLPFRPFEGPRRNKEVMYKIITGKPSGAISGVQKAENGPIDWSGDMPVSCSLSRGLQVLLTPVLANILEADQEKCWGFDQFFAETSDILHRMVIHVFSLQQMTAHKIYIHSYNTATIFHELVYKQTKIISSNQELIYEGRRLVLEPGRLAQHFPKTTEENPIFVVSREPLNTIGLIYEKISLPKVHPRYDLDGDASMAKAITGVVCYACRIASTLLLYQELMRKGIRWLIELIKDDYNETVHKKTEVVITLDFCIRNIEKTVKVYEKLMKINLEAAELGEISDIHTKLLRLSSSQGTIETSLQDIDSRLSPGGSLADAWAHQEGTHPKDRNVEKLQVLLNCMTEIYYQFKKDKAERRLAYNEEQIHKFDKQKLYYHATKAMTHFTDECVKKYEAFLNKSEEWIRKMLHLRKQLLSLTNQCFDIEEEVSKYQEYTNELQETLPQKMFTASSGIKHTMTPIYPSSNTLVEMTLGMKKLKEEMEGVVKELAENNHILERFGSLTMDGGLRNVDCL

Sequence of Calcium/calmodulin-dependent protein kinase type II subunit alpha (Homo sapiens) (Q9UQM7 whole entry): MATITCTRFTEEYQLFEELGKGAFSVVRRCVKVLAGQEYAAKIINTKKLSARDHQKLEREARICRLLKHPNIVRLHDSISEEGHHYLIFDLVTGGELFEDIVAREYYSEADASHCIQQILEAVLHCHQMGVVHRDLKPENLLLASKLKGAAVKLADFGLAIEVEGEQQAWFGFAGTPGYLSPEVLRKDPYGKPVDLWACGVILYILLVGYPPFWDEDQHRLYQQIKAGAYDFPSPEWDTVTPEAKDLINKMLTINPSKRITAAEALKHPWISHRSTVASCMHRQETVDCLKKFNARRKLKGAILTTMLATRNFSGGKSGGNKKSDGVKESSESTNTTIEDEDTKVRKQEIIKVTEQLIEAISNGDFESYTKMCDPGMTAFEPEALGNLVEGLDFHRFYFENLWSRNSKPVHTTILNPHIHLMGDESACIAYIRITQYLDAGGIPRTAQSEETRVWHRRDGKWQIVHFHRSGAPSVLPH
Sequence of RAF proto-oncogene serine/threonine-protein kinase (Homo sapiens), P04049 [Y340D,Y341D] (P04049 whole entry Y340D/Y341D, the tested form may be a part): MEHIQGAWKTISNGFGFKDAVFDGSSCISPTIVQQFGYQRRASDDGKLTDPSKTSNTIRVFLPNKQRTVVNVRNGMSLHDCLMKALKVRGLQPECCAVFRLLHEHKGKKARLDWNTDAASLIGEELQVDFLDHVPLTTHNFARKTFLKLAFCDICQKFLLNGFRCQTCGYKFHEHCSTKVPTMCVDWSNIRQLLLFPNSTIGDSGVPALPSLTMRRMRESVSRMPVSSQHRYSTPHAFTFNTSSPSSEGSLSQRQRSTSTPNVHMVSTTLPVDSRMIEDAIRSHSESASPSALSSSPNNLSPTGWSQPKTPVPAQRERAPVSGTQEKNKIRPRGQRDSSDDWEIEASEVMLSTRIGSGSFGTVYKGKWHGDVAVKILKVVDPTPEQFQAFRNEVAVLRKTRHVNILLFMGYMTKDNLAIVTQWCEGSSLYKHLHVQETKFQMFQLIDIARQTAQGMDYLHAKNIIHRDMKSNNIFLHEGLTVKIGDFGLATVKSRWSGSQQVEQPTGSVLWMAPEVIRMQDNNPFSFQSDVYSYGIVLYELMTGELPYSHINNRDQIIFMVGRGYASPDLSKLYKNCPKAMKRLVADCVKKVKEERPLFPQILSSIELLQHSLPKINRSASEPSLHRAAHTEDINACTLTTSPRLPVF
Sequence of Serine/threonine-protein kinase BRSK1 (Homo sapiens) (Q8TDC3 whole entry, the tested form may be a part): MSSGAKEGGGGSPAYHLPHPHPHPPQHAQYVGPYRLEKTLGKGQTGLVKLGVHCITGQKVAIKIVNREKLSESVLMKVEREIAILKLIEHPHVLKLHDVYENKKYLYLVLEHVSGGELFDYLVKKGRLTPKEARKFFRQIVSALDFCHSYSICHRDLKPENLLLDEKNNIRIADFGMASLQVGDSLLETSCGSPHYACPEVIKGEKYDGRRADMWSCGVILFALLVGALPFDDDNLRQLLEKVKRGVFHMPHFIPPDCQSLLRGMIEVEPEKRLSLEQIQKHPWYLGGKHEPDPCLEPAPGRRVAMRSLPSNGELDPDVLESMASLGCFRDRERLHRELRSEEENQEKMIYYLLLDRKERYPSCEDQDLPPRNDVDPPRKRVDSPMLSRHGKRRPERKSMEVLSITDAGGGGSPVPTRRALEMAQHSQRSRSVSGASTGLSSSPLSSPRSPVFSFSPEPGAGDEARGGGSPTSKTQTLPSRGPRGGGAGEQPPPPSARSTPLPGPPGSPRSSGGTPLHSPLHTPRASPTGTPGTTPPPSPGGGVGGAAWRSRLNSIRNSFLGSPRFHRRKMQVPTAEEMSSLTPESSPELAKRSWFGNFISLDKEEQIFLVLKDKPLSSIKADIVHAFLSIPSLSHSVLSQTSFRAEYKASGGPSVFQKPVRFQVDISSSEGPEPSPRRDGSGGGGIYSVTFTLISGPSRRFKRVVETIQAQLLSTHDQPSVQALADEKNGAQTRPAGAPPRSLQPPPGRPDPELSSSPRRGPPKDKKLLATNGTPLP
Sequence of Tyrosine-protein kinase ABL1 (Homo sapiens) (P00519 whole entry): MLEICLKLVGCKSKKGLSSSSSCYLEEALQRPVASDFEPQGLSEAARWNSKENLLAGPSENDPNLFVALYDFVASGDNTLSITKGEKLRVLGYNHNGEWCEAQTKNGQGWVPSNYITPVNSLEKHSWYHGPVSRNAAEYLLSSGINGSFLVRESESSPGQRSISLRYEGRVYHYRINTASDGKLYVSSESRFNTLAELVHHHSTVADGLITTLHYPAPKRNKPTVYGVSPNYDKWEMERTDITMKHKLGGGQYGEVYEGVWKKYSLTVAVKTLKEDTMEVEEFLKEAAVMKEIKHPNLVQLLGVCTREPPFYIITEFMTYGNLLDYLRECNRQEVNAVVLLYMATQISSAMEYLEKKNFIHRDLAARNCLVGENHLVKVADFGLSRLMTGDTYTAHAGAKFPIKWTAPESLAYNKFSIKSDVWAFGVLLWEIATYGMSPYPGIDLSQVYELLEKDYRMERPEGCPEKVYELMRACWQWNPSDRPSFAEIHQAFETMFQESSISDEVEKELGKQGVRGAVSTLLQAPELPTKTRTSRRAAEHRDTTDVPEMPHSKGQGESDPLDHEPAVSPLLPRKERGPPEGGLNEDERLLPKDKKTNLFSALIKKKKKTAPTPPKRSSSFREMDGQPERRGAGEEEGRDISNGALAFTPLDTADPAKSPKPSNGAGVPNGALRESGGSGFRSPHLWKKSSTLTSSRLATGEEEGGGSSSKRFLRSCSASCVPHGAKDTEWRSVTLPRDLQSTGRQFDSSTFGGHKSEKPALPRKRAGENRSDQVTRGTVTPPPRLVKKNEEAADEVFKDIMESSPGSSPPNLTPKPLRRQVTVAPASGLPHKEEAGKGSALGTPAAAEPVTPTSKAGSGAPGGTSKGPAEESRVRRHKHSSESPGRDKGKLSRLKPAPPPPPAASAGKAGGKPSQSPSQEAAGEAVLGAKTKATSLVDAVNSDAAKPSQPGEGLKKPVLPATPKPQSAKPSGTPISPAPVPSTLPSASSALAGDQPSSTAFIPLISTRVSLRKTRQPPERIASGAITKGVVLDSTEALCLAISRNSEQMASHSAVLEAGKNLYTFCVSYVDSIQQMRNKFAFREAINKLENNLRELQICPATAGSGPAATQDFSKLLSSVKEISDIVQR
Sequence of Serine/threonine-protein kinase 17A (Homo sapiens) (Q9UEE5 whole entry): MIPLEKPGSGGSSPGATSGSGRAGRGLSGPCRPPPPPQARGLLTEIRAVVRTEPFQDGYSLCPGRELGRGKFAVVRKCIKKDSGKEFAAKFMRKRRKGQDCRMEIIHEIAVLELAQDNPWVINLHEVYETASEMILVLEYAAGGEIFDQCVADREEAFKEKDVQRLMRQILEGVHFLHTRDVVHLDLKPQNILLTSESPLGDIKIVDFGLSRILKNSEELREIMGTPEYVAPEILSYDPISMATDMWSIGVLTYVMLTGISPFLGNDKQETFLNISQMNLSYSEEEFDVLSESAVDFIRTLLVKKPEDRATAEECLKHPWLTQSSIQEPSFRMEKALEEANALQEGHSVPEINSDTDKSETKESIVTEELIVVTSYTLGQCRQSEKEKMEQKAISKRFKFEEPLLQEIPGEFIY
Sequence of Mitogen-activated protein kinase kinase kinase kinase 5 (Homo sapiens) (Q9Y4K4 whole entry, looked up): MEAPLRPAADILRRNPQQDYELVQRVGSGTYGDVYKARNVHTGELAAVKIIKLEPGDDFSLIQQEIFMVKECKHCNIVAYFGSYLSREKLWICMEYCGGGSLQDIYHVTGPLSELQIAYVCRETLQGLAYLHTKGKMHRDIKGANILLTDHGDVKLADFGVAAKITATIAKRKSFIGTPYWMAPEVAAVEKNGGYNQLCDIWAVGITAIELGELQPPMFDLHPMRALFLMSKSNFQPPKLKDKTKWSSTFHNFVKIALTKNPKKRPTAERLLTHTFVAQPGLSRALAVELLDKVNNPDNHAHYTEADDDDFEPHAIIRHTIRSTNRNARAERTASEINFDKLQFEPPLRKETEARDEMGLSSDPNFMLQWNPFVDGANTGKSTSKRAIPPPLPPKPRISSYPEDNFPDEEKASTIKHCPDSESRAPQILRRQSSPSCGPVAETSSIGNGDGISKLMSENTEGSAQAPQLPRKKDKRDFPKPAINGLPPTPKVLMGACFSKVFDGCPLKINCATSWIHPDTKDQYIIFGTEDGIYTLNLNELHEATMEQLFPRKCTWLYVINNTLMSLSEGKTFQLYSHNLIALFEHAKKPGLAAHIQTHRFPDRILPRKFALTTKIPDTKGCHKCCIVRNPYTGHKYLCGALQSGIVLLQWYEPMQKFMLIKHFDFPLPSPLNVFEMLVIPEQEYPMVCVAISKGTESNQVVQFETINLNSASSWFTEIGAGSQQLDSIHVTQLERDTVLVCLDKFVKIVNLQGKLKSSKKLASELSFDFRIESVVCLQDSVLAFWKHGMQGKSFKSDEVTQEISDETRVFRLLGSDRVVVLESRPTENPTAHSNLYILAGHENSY

Compound: CC(C)(O)CNc1ncc(-c2ccnc(Nc3ccnc(Cl)c3)n2)c(CC2CC2)n1
- Activity [1]: 36%
- inhibition [2]: inactive
- inhibition [3]: inactive
- Activity [4]: 113%
- inhibition [5]: inactive
- inhibition [6]: inactive
- inhibition [7]: inactive
- Activity [8]: 124%
- inhibition [9]: inactive
- inhibition [10]: inactive
- Activity [11]: 109%
- inhibition [12]: inactive
- inhibition [13]: inactive
- inhibition [14]: inactive
- Activity [15]: 77%
- inhibition [16]: inactive
- inhibition [17]: inactive
- inhibition [18]: inactive
- Activity [19]: 88%
- Activity [20]: 105%
- Activity [21]: 104%
- inhibition [22]: inactive
- Activity [23]: 125%
